Reference: US8871753B2, “Macrocyclic compounds and their use as kinase inhibitors” (Incyte Corporation, priority 2008, dated 2014)
Counter-ions that a name gives are not always drawn.

How the values were obtained:
Format in all cases: biochemical
[1] = target: T1, human JAK2 (a.a. 828-1132) (Homo sapiens, UniProt O60674); assay: In vitro JAK kinase assay (HTRF, phosphorylation of a biotinylated peptide), JAK2; settings: method AA1 (30 μM ATP) or AA2 (1000 μM ATP), not stated per value
T1 construct: JAK2 (a.a. 828-1132); His tag (N); made in house; host or cells: insect cells (baculovirus)
How it was run: (§1)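 Phosphorylation of a biotinylated peptide by the JAK kinase domain, detected by HTRF with Eu-Py20 and SA-APC. ATP was 90 μM for JAK1, 30 μM for JAK2 and 3 μM for JAK3. Reactions ran 1 h at room temperature and were stopped with EDTA, followed by 40 min antibody binding.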

[2] = target: T2, Recombinant Human Anaplastic Lymphoma Kinase (Homo sapiens, UniProt Q9UM73); assay: ALK HTRF kinase assay; settings: compound at 500 nM or 1 mM; 90 μM ATP
T2 construct: purchased Invitrogen, Carlsbad, Calif
How it was run: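 Kinase activity of the recombinant human protein is measured on a biotinylated peptide, with a Eu-W1024 anti-phosphotyrosine antibody and streptavidin-allophycocyanin generating the homogeneous time-resolved fluorescence signal. Inhibition curves are fitted to yield IC50.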

TYK2 = TYK2 (Homo sapiens, UniProt P29597); assay: TYK2 kinase inhibition (Table A1)
[3] = target: T3, human JAK3 (a.a. 781-1124) (Homo sapiens, UniProt P52333); assay: In vitro JAK kinase assay (HTRF, phosphorylation of a biotinylated peptide), JAK3; settings: method AA1 (3 μM ATP) or AA2 (1000 μM ATP), not stated per value
T3 construct: JAK3 (a.a. 781-1124); His tag (N); made in house; host or cells: insect cells (baculovirus)
How it was run: as §1

[4] = target: T4, human JAK1 (a.a. 837-1142) (Homo sapiens, UniProt P23458); assay: In vitro JAK kinase assay (HTRF, phosphorylation of a biotinylated peptide), JAK1; settings: method AA1 (90 μM ATP) or AA2 (1000 μM ATP), not stated per value; read-out: JAK1 IC50
T4 construct: human JAK1 (a.a. 837-1142); His tag (N); made in house; host or cells: insect cells (baculovirus)
How it was run: as §1

T1 sequence (O60674 828-1132): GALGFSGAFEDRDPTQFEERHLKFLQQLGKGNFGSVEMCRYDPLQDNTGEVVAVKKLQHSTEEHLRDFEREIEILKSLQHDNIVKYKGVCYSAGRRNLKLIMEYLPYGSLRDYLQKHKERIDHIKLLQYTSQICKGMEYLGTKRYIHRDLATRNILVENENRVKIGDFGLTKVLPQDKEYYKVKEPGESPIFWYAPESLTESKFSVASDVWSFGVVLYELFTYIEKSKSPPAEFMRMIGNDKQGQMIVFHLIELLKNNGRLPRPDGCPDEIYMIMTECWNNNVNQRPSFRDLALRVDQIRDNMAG
T2 sequence (Q9UM73 19-1620): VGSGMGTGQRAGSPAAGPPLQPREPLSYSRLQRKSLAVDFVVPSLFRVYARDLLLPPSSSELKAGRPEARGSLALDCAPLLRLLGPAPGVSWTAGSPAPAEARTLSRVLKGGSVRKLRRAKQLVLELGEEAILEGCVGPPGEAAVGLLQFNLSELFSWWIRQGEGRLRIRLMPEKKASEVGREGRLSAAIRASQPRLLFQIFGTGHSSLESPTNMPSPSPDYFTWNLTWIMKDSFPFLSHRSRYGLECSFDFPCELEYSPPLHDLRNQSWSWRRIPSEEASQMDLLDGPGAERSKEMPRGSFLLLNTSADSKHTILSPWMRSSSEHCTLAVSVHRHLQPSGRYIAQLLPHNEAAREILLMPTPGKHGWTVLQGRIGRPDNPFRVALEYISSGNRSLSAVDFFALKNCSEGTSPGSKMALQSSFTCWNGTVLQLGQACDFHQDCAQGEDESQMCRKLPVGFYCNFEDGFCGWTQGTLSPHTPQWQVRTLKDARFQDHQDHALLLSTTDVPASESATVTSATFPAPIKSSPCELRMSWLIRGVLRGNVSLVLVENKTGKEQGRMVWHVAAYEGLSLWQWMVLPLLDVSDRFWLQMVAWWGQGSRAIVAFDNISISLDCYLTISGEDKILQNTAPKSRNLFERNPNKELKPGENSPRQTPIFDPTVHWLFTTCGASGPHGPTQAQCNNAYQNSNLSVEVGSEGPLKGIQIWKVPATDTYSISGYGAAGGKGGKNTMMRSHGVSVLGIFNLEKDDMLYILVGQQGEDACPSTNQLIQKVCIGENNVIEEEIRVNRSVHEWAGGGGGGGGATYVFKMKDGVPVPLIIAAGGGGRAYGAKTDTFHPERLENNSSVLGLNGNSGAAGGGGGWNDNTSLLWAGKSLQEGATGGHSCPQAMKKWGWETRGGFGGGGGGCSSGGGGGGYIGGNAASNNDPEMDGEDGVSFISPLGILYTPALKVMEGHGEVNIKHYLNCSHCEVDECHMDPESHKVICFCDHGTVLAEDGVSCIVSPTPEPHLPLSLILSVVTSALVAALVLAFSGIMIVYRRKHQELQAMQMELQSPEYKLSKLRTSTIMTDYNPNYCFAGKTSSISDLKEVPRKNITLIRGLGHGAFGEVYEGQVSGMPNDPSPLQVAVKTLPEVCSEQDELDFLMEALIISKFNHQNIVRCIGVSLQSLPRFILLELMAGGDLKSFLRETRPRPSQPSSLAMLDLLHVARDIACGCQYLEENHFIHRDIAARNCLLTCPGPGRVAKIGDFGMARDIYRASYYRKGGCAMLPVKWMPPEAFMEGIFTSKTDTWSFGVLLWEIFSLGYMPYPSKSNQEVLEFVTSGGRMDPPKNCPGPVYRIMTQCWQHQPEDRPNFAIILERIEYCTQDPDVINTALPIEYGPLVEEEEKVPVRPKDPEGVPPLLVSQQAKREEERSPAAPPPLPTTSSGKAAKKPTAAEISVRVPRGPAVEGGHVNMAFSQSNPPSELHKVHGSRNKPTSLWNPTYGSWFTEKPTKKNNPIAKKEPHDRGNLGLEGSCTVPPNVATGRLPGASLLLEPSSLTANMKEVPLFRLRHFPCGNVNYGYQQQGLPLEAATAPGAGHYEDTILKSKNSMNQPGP
T4 sequence (P23458 849-1154): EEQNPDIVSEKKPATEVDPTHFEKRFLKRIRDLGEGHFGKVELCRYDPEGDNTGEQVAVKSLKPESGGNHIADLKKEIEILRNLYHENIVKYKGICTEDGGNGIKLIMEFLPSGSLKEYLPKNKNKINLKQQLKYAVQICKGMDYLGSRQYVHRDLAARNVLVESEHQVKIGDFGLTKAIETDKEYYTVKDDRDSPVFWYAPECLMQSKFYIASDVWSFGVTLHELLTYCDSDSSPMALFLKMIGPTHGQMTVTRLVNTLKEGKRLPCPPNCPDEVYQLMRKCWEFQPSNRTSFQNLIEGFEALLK
T3 sequence (P52333 781-1124): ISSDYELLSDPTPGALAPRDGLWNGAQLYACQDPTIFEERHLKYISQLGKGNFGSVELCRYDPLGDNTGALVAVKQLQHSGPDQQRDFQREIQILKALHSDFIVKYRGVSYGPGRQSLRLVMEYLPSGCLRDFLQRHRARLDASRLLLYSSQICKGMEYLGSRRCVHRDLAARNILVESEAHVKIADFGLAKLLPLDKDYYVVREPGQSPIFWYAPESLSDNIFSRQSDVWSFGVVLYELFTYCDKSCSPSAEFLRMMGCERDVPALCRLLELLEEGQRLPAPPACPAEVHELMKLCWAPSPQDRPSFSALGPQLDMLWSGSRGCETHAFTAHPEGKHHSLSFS
TYK2, sequence (P29597 whole entry): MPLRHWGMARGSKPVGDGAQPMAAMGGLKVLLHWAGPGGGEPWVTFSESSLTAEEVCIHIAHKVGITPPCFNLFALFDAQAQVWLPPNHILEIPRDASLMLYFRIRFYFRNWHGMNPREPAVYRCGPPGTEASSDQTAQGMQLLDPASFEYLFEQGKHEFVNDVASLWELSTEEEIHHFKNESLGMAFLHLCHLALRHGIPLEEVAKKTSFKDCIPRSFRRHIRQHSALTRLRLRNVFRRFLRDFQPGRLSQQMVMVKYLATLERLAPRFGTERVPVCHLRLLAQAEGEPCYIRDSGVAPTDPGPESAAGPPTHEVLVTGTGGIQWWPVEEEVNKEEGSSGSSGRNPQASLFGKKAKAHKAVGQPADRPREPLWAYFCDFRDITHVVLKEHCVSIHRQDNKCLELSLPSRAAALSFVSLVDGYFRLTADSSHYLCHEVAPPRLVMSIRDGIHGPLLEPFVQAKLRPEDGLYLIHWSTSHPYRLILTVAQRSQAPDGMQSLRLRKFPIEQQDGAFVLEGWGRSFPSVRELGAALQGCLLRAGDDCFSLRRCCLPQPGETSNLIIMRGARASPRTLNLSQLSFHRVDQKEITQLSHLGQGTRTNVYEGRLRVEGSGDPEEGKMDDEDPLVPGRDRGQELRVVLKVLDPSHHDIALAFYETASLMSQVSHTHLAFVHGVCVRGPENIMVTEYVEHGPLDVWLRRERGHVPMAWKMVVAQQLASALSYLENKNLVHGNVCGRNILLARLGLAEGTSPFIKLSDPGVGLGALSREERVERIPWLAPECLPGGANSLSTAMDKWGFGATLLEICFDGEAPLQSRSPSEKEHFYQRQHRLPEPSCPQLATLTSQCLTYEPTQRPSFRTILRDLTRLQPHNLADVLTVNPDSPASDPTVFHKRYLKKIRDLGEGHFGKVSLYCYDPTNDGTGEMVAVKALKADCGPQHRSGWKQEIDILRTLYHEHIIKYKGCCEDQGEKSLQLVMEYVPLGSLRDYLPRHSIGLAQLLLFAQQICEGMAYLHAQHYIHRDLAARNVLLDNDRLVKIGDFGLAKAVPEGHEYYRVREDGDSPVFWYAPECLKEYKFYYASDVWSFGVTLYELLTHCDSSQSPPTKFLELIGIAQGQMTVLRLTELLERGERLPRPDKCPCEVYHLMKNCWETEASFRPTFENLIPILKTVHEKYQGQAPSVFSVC

Row | SMILES | IC50 [1] | ALK % of inhibition at a concentration of 500 nM or 1 mM [2] | IC50 (TYK2) | IC50 [3] | IC50 [4]
1 | CC(C)C(=O)N1CCC(CC(=O)Nc2ccc3cc2CCc2cncc(c2)Nc2ncc(Cl)c(n2)N3)CC1 [Example A103, N-[6-Chloro-2,4,8,18,22-pentaazatetracyclo[14.3.1.1(3,7).1(9,13)]docosa-1(20),3(22),4,6,9(21),10,12,16,18-nonaen-12-yl]-2-(1-isobutyrylpiperidin-4-yl)acetamide bis(trifluoroacetate)] | 21 nM | 24% | 15 nM | 156 nM | 10 nM
2 | CCC(=O)N1CCC(CC(=O)Nc2ccc3cc2CCc2cncc(c2)Nc2ncc(Cl)c(n2)N3)CC1 [Example A104, N-[6-Chloro-2,4,8,18,22-pentaazatetracyclo[14.3.1.1(3,7).1(9,13)]docosa-1(20),3(22),4,6,9(21),10,12,16,18-nonaen-12-yl]-2-(1-propionylpiperidin-4-yl)acetamide bis(trifluoroacetate)] | 8.3 nM | 26% | 4.4 nM | 148 nM | 81 nM
3 | O=C(CC1CCNC1)Nc1ccc2cc1CCc1cncc(c1)Nc1ncc(Cl)c(n1)N2 (stereo not shown) [Example A105, N-[6-Chloro-2,4,8,18,22-pentaazatetracyclo[14.3.1.1(3,7).1(9,13)]docosa-1(20),3(22),4,6,9(21),10,12,16,18-nonaen-12-yl]-2-pyrrolidin-3-ylacetamide tris(trifluoroacetate)] | 40 nM | 23% | 44 nM | 112 nM | 29 nM
4 | C[C@H](O)C(=O)Nc1ccc2cc1CCc1cccc(c1)Nc1ncc(Cl)c(n1)N2 [Example A106, (2S)—N-[6-Chloro-2,4,8,22-tetraazatetracyclo[14.3.1.1(3,7).1(9,13)]docosa-1(20),3(22),4,6,9(21),10,12,16,18-nonaen-12-yl]-2-hydroxypropanamide trifluoroacetate] | 10 nM | 21% | 22 nM | 6.2 nM | 18 nM
5 | NCC(=O)Nc1ccc2cc1CCc1cccc(c1)Nc1ncc(Cl)c(n1)N2 [Example A107, 2-Amino-N-[6-chloro-2,4,8,22-tetraazatetracyclo[14.3.1.1(3,7).1(9,13)]docosa-1(20),3(22),4,6,9(21),10,12,16,18-nonaen-12-yl]acetamide bis(trifluoroacetate)] | 10 nM | 39% | 4.2 nM | 8.2 nM | 4 nM
6 | NCCC(=O)Nc1ccc2cc1CCc1cccc(c1)Nc1ncc(Cl)c(n1)N2 [Example A108, 3-Amino-N-[6-chloro-2,4,8,22-tetraazatetracyclo[14.3.1.1(3,7).1(9,13)]docosa-1(20),3(22),4,6,9(21),10,12,16,18-nonaen-12-yl]propanamide bis(trifluoroacetate)] | 32 nM | 32% | 15 nM | 26 nM | 6 nM
7 | N[C@@H](CO)C(=O)Nc1ccc2cc1CCc1cccc(c1)Nc1ncc(Cl)c(n1)N2 [Example A109, (2S)-2-Amino-N-[6-chloro-2,4,8,22-tetraazatetracyclo[14.3.1.1(3,7).1(9,13)]docosa-1(20),3(22),4,6,9(21),10,12,16,18-nonaen-12-yl]-3-hydroxypropanamide bis(trifluoroacetate)] | 11 nM | 33% | 7.5 nM | 7.3 nM | 5 nM
8 | O=C(Nc1ccc2cc1CCc1cccc(c1)Nc1ncc(Cl)c(n1)N2)[C@@H]1CCCN1 [Example A110, (2S)—N-[6-Chloro-2,4,8,22-tetraazatetracyclo[14.3.1.1(3,7).1(9,13)]docosa-1(20),3(22),4,6,9(21),10,12,16,18-nonaen-12-yl]pyrrolidine-2-carboxamide bis(trifluoroacetate)] | 26 nM | 45% | 15 nM | 14 nM | 32 nM
9 | C[N+]1(C)CCC(CC(=O)Nc2ccc3cc2CCc2cccc(c2)Nc2ncc(Cl)c(n2)N3)CC1 [Example A111, 4-(2-{[6-Chloro-2,4,8,22-tetraazatetracyclo[14.3.1.1(3,7).1(9,13)]docosa-1(20),3(22),4,6,9(21),10,12,16,18-nonaen-12-yl]amino}-2-oxoethyl)-1,1-dimethylpiperidinium bis(trifluoroacetate)] | 103 nM | 23% | 148 nM | 298 nM | 45 nM
10 | CC(C)(C)C(=O)N1CCC(CC(=O)Nc2ccc3cc2CCc2cncc(c2)Nc2ncc(Cl)c(n2)N3)CC1 [Example A112, N-[6-Chloro-2,4,8,18,22-pentaazatetracyclo[14.3.1.1(3,7).1(9,13)]docosa-1(20),3(22),4,6,9(21),10,12,16,18-nonaen-12-yl]-2-[1-(2,2-dimethylpropanoyl)piperidin-4-yl]acetamide bis(trifluoroacetate)] | 38 nM | 20% | 61 nM | 239 nM | 8 nM
11 | CC(C)(C)NC(=O)N1CCC(CC(=O)Nc2ccc3cc2CCc2cncc(c2)Nc2ncc(Cl)c(n2)N3)CC1 [Example A113, N-(tert-Butyl)-4-(2-{[6-chloro-2,4,8,18,22-pentaazatetracyclo[14.3.1.1(3,7).1(9,13)]docosa-1(20),3(22),4,6,9(21),10,12,16,18-nonaen-12-yl]amino}-2-oxoethyl)piperidine-1-carboxamide bis(trifluoroacetate)] | 54 nM | 14% | 61 nM | 238 nM | 17 nM
12 | O=C(CN1CCNCC1)Nc1ccc2cc1CCc1cccc(c1)Nc1ncc(Cl)c(n1)N2 [Example A114, tris(trifluoroacetate)] | 13 nM | 19% | 33 nM | 59 nM | 25 nM
13 | O=C(CN1CCNCC1)Nc1ccc2cc1CCc1cncc(c1)Nc1ncc(Cl)c(n1)N2 [Example A115, N-[6-Chloro-2,4,8,18,22-pentaazatetracyclo[14.3.1.1(3,7).1(9,13)]docosa-1(20),3(22),4,6,9(21),10,12,16,18-nonaen-12-yl]-2-piperazin-1-acetamide tetrakis(trifluoroacetate)] | 42 nM | 20% | 45 nM | 300 nM | 34 nM
14 | O=C(CCC1CCNCC1)Nc1ccc2cc1CCc1cccc(c1)Nc1ncc(Cl)c(n1)N2 [Example A116, N-[6-Chloro-2,4,8,22-tetraazatetracyclo[14.3.1.1(3,7).1(9,13)]docosa-1(20),3(22),4,6,9(21),10,12,16,18-nonaen-12-yl]-3piperidin-4-ylpropanamide bis(trifluoroacetate)] | 20 nM | 27% | 33 nM | 44 nM | 14 nM
15 | O=C(CCC1CCNCC1)Nc1ccc2cc1CCc1cncc(c1)Nc1ncc(Cl)c(n1)N2 [Example A117, N-[6-Chloro-2,4,8,18,22-pentaaazatetracyclo[14.3.1.1(3,7).1(9,13)]docosa-1(20),3(22),4,6,9(21),10,12,16,18-nonaen-12-yl]-3piperidin-4-ylpropanamide tris(trifluoroacetate)] | 29 nM | 25% | 44 nM | 160 nM | 10 nM
16 | O=C(CN1CCN(c2nc3cccnc3o2)CC1)Nc1ccc2cc1CCc1cncc(c1)Nc1ncc(Cl)c(n1)N2 [Example A118, N-[6-Chloro-2,4,8,18,22-pentaazatetracyclo[14.3.1.1(3,7).1(9,13)]docosa-1(20),3(22),4,6,9(21),10,12,16,18-nonaen-12-yl]-2-(4-[1,3]oxazolo[5,4-b]pyridin-2-ylpiperazin-1-yl)acetamide tris(trifluoroacetate)] | 16 nM | 29% | 20 nM | 150 nM | 0.9 nM
17 | Cc1cc(C(=O)N2CCN(CC(=O)Nc3ccc4cc3CCc3cncc(c3)Nc3ncc(Cl)c(n3)N4)CC2)no1 [Example A119, N-[6-Chloro-2,4,8,18,22-pentaazatetracyclo[14.3.1.1(3,7).1(9,13)]docosa-1(20),3(22),4,6,9(21),10,12,16,18-nonaen-12-yl]-2-{4-[(5-methylisoxazol-3-yl)carbonyl]piperazin-1-yl}acetamide tris(trifluoroacetate)] | 16 nM | 15% | 8.6 nM | 174 nM | 3.6 nM
